This experiment concerns the target Dual specificity tyrosine-phosphorylation-regulated kinase 1A (Homo sapiens, UniProt Q13627). Put plainly: DYRK1A Kinase Assay. On the procedure: Each compound was dissolved in DMSO as a 10 mM stock and used to prepare compound source plates. Serial dilution (1:3, 11-point dose-response curves from 10 μM to 0.00016 μM) and compound transfer was performed using the ECHO 550 (Labcyte, Sunnyvale, CA) into 1536-well black-walled round bottom plates (Corning).The DYRK1A kinase assay was run using the Ser/Thr 18 peptide Z-lyte assay kit according to manufacturer's instructions (Life Technologies—a Division of Thermo-Fisher). This is a non-radioactive assay using fluorescence resonance energy transfer (FRET) between coumarin and fluorescein to detect kinase activity which is represented as a ratio of coumarin emission/fluorescein emission.Briefly, recombinant DYRK1A kinase, ATP and Ser/Thr peptide 18 were prepared in 1× Kinase buffer to final concentrations of 0.25 μg/mL, 15 μM, and 4 μM respectively. The mixture was allowed to incubate with the representative compounds for one hour at room temperature. All reactions were performed in duplicate. Unphosphorylated (“0% Control”) and phosphorylated (“100% control”) forms of Ser/Thr 18 served as control reactions. Additionally, an 11-point dose-response curve of Staurosporine (1 uM top) was run to serve as a positive compound control.After incubation, Development Reagent A was diluted in Development Buffer then added to the reaction and allowed to further incubate for one hour at room temperature. The plate was read at Ex 400 Em 455 to detect the coumarin signal and Ex 400 Em 520 to measure the signal (EnVision Multilabel Plate Reader, PerkinElmer).
Turning to `COc1nc(N[C@H]2CC[C@@](C)(O)CC2)nc2[nH]cc(-c3ccc4ncnn4c3)c12` [US20250129104, Compound 3053], a half-maximal response (EC50) required 1.4 nM.
Regarding `COc1nc(N[C@H](C)C(F)(F)F)c2c(-c3ccc4nc(C)n(CC(F)F)c4n3)c[nH]c2n1` [US20250129104, Compound 2817], the EC50 turned out to be 5440 nM.
For `C[C@]1(O)CC[C@H](Nc2ncc3c(-c4ccn5nccc5c4)c[nH]c3n2)CC1` [US20250129104, Compound 2238] the value was 35.2 nM.

The record behind these values is BindingDB's records for patent US20250129104 (Biosplice Therapeutics, 2025).
